This note sets out measurements from patent US20160060222A1, “AMINO-QUINOLINES AS KINASE INHIBITORS” (GlaxoSmithKline Intellectual Property Development Limited, priority 2011, published 2016).

The structures appear in SMILES notation. Structures can show the parent of a compound that is named as a salt.

The assay deals with T1, RIPK2 (Homo sapiens, UniProt O43353).
T1 construct: Full length FLAG His tagged RIPK2 was purified from a Baculovirus expression system; FLAG (N); 6His (N); made in house; host or cells: Spodoptera frugiperda (Sf9) insect cells, baculovirus
T1 sequence (O43353 whole entry): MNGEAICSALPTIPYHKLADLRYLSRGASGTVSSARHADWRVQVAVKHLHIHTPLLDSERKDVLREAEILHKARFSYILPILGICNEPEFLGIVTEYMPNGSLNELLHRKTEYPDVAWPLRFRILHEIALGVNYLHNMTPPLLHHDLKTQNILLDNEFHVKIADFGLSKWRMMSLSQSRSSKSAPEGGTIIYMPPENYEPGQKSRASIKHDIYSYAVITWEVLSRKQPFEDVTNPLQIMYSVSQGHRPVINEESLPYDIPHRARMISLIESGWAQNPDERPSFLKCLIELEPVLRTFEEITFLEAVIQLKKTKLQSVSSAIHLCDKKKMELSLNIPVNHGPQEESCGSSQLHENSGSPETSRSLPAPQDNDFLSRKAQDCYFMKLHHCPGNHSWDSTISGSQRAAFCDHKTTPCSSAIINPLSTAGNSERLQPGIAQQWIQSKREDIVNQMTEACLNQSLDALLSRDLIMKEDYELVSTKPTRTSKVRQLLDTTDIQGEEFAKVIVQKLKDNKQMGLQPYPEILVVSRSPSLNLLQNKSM
The assay is described as follows: Fluorescent polarization based binding assay at the ATP binding pocket of RIPK2. The settings on record: full length FLAG His tagged RIPK2; competition with fluorescently labeled ATP competitive ligand (5 nM); mean of a minimum of 2 experiments; read-out: mean pIC50 (RIP2 kinase, fluorescent polarization binding assay) (converted). An excerpt:
A fluorescent polarization based binding assay was developed to quantitate interaction of novel test compounds at the ATP binding pocket of RIPK2, by competition with a fluorescently labeled ATP competitive ligand. Full length FLAG His tagged RIPK2 was purified from a Baculovirus expression system and was used at a final assay concentration of twice the KDapparent. A fluorescent labeled ligand (5-({[2-({[3-({4-[(5-hydroxy-2-methylphenyl)amino]-2-pyrimidinyl}amino)phenyl]carbonyl}amino)ethyl]amino}carbonyl)-2-(6-hydroxy-3-oxo-3H-xanthen-9-yl)benzoic acid, prepared as described below) was used at a final assay concentration of 5 nM. Both the enzyme and ligand were prepared in solutions in 50 mM HEPES pH7.5, 150 mM NaCl, 10 mM MgCl2, 1 mM DTT, and 1 mM CHAPS. Test compounds were prepared in 100% DMSO and 100 nL was dispensed to individual wells of a multiwell plate. Next, 5 ul RIPK2 was added to the test compounds at twice the final assay concentration, and incubated at room temperature for 10 minutes. Following the incubation, 5 ul of the fluorescent labeled ligand solution, was added to each reaction, at twice the final assay concentration, and incubated at room temperature for at least 10 minutes. Finally, samples were read on an instrument capable of measuring fluorescent polarization. Test compound inhibition was expressed as percent (%) inhibition of internal assay controls.
For concentration response experiments, normalized data were fit and pIC50s determined using conventional techniques. For example, the following four parameter logistic equation may be used: y=A+(([…]))/(1+(10^x)/(10^C)^D), where: y is the % activity (% inhibition) at a specified compound concentration; A is the minimum % activity; B is the maximum % activity; C=log10(IC50); D=Hill slope; x=log10 (compound concentration [M]); and pIC50=(−C).
The pIC50s are averaged to determine a mean value, for a minimum of 2 experiments.
Full-length human RIPK2 (receptor-interacting serine-threonine kinase 2) cDNA was purchased from Invitrogen (Carlsbad, Calif., USA, Clone ID:10H6368, RIPK2-pENTR 221). […]
As for `CS(=O)(=O)c1ccc2nccc(Nc3ccc(O)c(F)c3)c2c1` [Example 12, 2-fluoro-4-{[6-(methylsulfonyl)-4-quinolinyl]amino}phenol], the IC50 was 398 nM.

Turning to `Nc1ccc(S(=O)(=O)c2ccc3nccc(Nc4ccc5scnc5c4)c3c2)cc1` [Example 106, 6-[(4-aminophenyl)sulfonyl]-N-1,3-benzothiazol-5-yl-4-quinolinamine tetrahydrochloride], the IC50 is 126 nM.

Turning to `CS(=O)(=O)c1ccc2nccc(Nc3n[nH]c4cc(Cl)ccc34)c2c1` [Example 75, N-(6-chloro-1H-indazol-3-yl)-6-(methylsulfonyl)-4-quinolinamine], the IC50 is 126 nM.
